Data taken from patent US20250176599A1, “FLAVOR COMPOSITION AND FOOD AND BEVERAGE” (TAKASAGO INTERNATIONAL CORPORATION, priority 2021, published 2025).

Experiments:
[1] = Sensory evaluation of aqueous solution I containing (E)-2-nonenal 1 ppb: off-flavor intensity and masking component intensity; conditions: (E)-2-nonenal 1 ppb, average score 0-4
Outline: (§1)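 Eight trained panelists tasted water solutions of the off-flavor compounds spiked with nootkatone. Masking-agent taste was scored absolutely from 0 (not sensed) to 4 (strong). Off-flavor was scored relatively, anchored at 4 for the solution without masker and 0 for ion-exchanged water.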

[2] = Sensory evaluation of aqueous solution II containing (E)-2-octenal 10 ppb: off-flavor intensity and masking component intensity; conditions: (E)-2-octenal 10 ppb, average score 0-4
Outline: as §1

[3] = Sensory evaluation of aqueous solution III containing 1-octen-3-one 1 ppb: off-flavor intensity and masking component intensity; conditions: 1-octen-3-one 1 ppb, average score 0-4
Outline: as §1

[4] = Sensory evaluation of aqueous solution IV containing 1,5-octadien-3-one 100 ppt: off-flavor intensity and masking component intensity; conditions: aqueous solution IV, 1,5-octadien-3-one 100 ppt, average score 0-4
Outline: as §1

[5] = Sensory evaluation of aqueous solution V containing 1-octen-3-ol 10 ppb: off-flavor intensity and masking component intensity; conditions: 1-octen-3-ol 10 ppb, average score 0-4
Outline: as §1

[6] = Sensory evaluation of aqueous solution VI containing 1,5-octadien-3-ol 10 ppb: off-flavor intensity and masking component intensity; conditions: aqueous solution VI, 1,5-octadien-3-ol 10 ppb, average score 0-4
Outline: as §1

[7] = Sensory evaluation of degradation component-added soymilk I ((E)-2-nonenal 5 ppb); conditions: average panel score
Experimental: (§2) To commercially available soymilk (“Delicious Unadjusted Soymilk” manufactured by Kikkoman Corporation), each degradation component was added to prepare degradation component-added soymilks at the concentrations listed in Table 23. To these degradation component-added soymilks, 1,4-dioxacycloheptadecan-5,17-dione was added at the concentrations listed in Table 23 to confirm the intensity of the off-flavor (masking effect) and the intensity of the masking components (impact on the flavor of the soymilk itself) for each sample.
(§3) Eight experienced panelists were selected to conduct a sensory evaluation similar to that of Example 1. […]

[8] = Sensory evaluation of degradation component-added soymilk II (1-octen-3-ol 500 ppb); conditions: average panel score
Experimental: as §2, §3

[9] = Overall conclusion of the sensory evaluation across aqueous solutions I to VI
Outline: as §1

[10] = Overall conclusion of the sensory evaluation across soymilks I and II
Experimental: as §2
Eight experienced panelists were selected to conduct a sensory evaluation similar to that of Example 1.
The same method as in Example 20 was used to confirm the intensity of the off-flavor (masking effect) derived from unsaturated fatty acids by α-methyl ionone and the intensity of the masking components (impact on the flavor of the soymilk itself).
The same method as in Example 20 was used to confirm the intensity of the off-flavor (masking effect) derived from unsaturated fatty acids by menthyl 3-hydroxybutyrate and the intensity of the masking components (impact on the flavor of the soymilk itself).

## CCC(=O)/C=C/C1C(C)=CCCC1(C)C (stereo not drawn) [α-Methyl Ionone, α-methyl ionone]
[1]; 0.01 ppt added
  Off-Flavor Intensity: 3.9 points
[1]; 0.1 ppt added
  Off-Flavor Intensity: 3.3 points
[1]; 1 ppb added
  Off-Flavor Intensity: 1.5 points
[1]; 1 ppm added
  Off-Flavor Intensity: 0.3 points
[1]; 1 ppt added
  Off-Flavor Intensity: 2.9 points
[1]; 10 ppb added
  Off-Flavor Intensity: 1.0 points
[1]; 10 ppt added
  Off-Flavor Intensity: 2.4 points
[1]; 100 ppb added
  Off-Flavor Intensity: 0.3 points
[1]; 100 ppt added
  Off-Flavor Intensity: 1.8 points
[2]; 0.01 ppt added
  Off-Flavor Intensity: 3.1 points
[2]; 0.1 ppt added
  Off-Flavor Intensity: 2.8 points
[2]; 1 ppb added
  Off-Flavor Intensity: 1.0 points
[2]; 1 ppm added
  Off-Flavor Intensity: 0.3 points
[2]; 1 ppt added
  Off-Flavor Intensity: 2.1 points
[2]; 10 ppb added
  Off-Flavor Intensity: 0.8 points
[2]; 10 ppt added
  Off-Flavor Intensity: 1.5 points
[2]; 100 ppb added
  Off-Flavor Intensity: 0.4 points
[2]; 100 ppt added
  Off-Flavor Intensity: 1.1 points
[3]; 0.01 ppt added
  Off-Flavor Intensity: 3.4 points
[3]; 0.1 ppt added
  Off-Flavor Intensity: 3.1 points
[3]; 1 ppb added
  Off-Flavor Intensity: 1.4 points
[3]; 1 ppm added
  Off-Flavor Intensity: 0.3 points
[3]; 1 ppt added
  Off-Flavor Intensity: 2.6 points
[3]; 10 ppb added
  Off-Flavor Intensity: 1.3 points
[3]; 10 ppt added
  Off-Flavor Intensity: 2.3 points
[3]; 100 ppb added
  Off-Flavor Intensity: 0.3 points
[3]; 100 ppt added
  Off-Flavor Intensity: 1.9 points
[4]; 0.01 ppt added
  Off-Flavor Intensity: 3.4 points
[4]; 0.1 ppt added
  Off-Flavor Intensity: 3.3 points
[4]; 1 ppb added
  Off-Flavor Intensity: 1.5 points
[4]; 1 ppm added
  Off-Flavor Intensity: 0.4 points
[4]; 1 ppt added
  Off-Flavor Intensity: 2.9 points
[4]; 10 ppb added
  Off-Flavor Intensity: 1.4 points
[4]; 10 ppt added
  Off-Flavor Intensity: 2.6 points
[4]; 100 ppb added
  Off-Flavor Intensity: 0.8 points
[4]; 100 ppt added
  Off-Flavor Intensity: 1.9 points
[5]; 0.01 ppt added
  Off-Flavor Intensity: 3.6 points
[5]; 0.1 ppt added
  Off-Flavor Intensity: 3.3 points
[5]; 1 ppb added
  Off-Flavor Intensity: 1.4 points
[5]; 1 ppm added
  Off-Flavor Intensity: 0.1 points
[5]; 1 ppt added
  Off-Flavor Intensity: 2.8 points
[5]; 10 ppb added
  Off-Flavor Intensity: 0.8 points
[5]; 10 ppt added
  Off-Flavor Intensity: 2.4 points
[5]; 100 ppb added
  Off-Flavor Intensity: 0.5 points
[5]; 100 ppt added
  Off-Flavor Intensity: 1.8 points
[6]; 0.01 ppt added
  Off-Flavor Intensity: 3.5 points
[6]; 0.1 ppt added
  Off-Flavor Intensity: 3.3 points
[6]; 1 ppb added
  Off-Flavor Intensity: 1.4 points
[6]; 1 ppm added
  Off-Flavor Intensity: 0.5 points
[6]; 1 ppt added
  Off-Flavor Intensity: 2.8 points
[6]; 10 ppb added
  Off-Flavor Intensity: 1.4 points
[6]; 10 ppt added
  Off-Flavor Intensity: 2.4 points
[6]; 100 ppb added
  Off-Flavor Intensity: 0.6 points
[6]; 100 ppt added
  Off-Flavor Intensity: 2.0 points
[7]; 1 ppb added
  Masking Component Intensity: 0.8
  Off-Flavor Intensity: 2.6
[7]; 1 ppm added
  Masking Component Intensity: 3.9
  Off-Flavor Intensity: 0.5
[7]; 10 ppb added
  Masking Component Intensity: 1.9
  Off-Flavor Intensity: 1.9
[7]; 100 ppb added
  Masking Component Intensity: 3.1
  Off-Flavor Intensity: 1.0
[7]; 100 ppt added
  Masking Component Intensity: 0.1
  Off-Flavor Intensity: 3.0
[8]; 1 ppb added
  Masking Component Intensity: 0.8
  Off-Flavor Intensity: 2.1
[8]; 1 ppm added
  Masking Component Intensity: 3.9
  Off-Flavor Intensity: 0.4
[8]; 10 ppb added
  Masking Component Intensity: 1.4
  Off-Flavor Intensity: 1.3
[8]; 100 ppb added
  Masking Component Intensity: 2.8
  Off-Flavor Intensity: 0.9
[8]; 100 ppt added
  Masking Component Intensity: 0.4
  Off-Flavor Intensity: 2.5
[9]
  concentration that masks the off-flavor and does not affect the flavor of the food and/or beverage itself, lower limit: ≥ 0.1 ppt
  concentration that masks the off-flavor and does not affect the flavor of the food and/or beverage itself, upper limit: ≤ 100 ppb
[10]
  concentration that masks the off-flavor and does not affect the flavor of the soymilk itself, lower limit: ≥ 100 ppt
  concentration that masks the off-flavor and does not affect the flavor of the soymilk itself, upper limit: ≤ 100 ppb
